In paper PMC10609944, “Development of a Dosage form for a Photoswitchable Local Anesthetic Ethercaine” (Pharmaceuticals, 2023):
In brackets after ≈: the same amount, converted by molar mass. Structures can show the parent of a compound that is named as a salt. Where two headings read alike, the source gives them in different places. Marks after values point to notes of the source that are not given here.

Key:
rabbit eye cornea [1] = system: rabbit eye cornea; set-up: method as in PMID 35628162; conditions: n = 8, cited from earlier work
[2] = Solubilization of ethercaine: maximum solubility; assay type: physicochemical
Text: Since ETH itself, as a free base, is virtually insoluble in water and only partially soluble in 4% solution of Kolliphor ELP, at the first stage it was decided to study the effects of increasing the concentration of Kolliphor ELP and replacing it with Pluronic F127. Pluronic F127 is also an FDA-approved solubilizer of a different nature to the Kolliphor ELP, so it was selected as an alternative solubilizer for the study. Both substances are surfactants capable of forming direct micelles in aqueous solutions for loading hydrophobic compounds that are sparingly soluble in water. We chose a 4% concentration of Kolliphor ELP as the initial concentration that is suitable for the solubilization of hydrophobic dyes but is safe for clinical use, including for intravenous administration. In the case of other administration routes, for example, for ophthalmic use, this concentration can be increased. For further studies, we chose a 10% concentration of Kolliphor ELP. Despite an almost two-fold increase in the maximum solubility of ETH (Table 1) with an increase in the concentration of Kolliphor ELP from 4% to 10%, data on biological activity indicated an unstable and undulating local anesthetic effect on the cornea of the rabbit eye according to the Regnier method, which appeared to be due to the delayed drug release at high surfactant concentrations.
At the next stage of the solubility study, micelle-forming solubilizers and an anesthetic in the form of the ETH·HCl salt were used.
A solution of 4-(2-(N-morpholino)-ethoxy)-azobenzene hydrochloride (2) (50.0 mg) in dichloromethane (2 mL) was added dropwise to a freshly prepared 4% aqueous solution of solubilizer (Kolliphor® ELP or Pluronic F127) (5 mL) heated to 45 °C with continuous argon bubbling. Bubbling was continued until strong foaming started. A clear orange solution with a concentration of 1.0% was obtained, which was subsequently filtered in turn through 0.45 µm PTFE filter and then through 0.22 µm PTFE filter.

[3] = set-up: method as in PMID 35628162; conditions: in 4% Kolliphor ELP; cited from earlier work
rabbit eye cornea [4] = assay: Local anesthetic activity, surface anesthesia on rabbit eye cornea, Regnier method; conditions: solutions irradiated with UV light λ = 365 nm vs dark
Description: The essence of the method is to estimate the number of eye closures during the tactile exposure of the cornea of a rabbit’s eye. According to the method, four animals (eight experimental points) were selected for each group, except two groups with a negative control. For the latter two animals (four experimental points) were used due to the lack of the activity and to minimize the number of animals in the experiment. The animals were randomly divided into four experimental (1% ETH·HCl in 4% Kolliphor ELP or in 4% Pluronic F127, two modes with and without UV irradiation) and four control groups (4% Kolliphor ELP or 4% Pluronic F127, two modes with and without UV irradiation).
For determination of the sensitivity of rabbit eye cornea using the surface anesthesia method, a total of four rabbits with a basic sensitivity threshold of 1–2 touches were selected. […]
Before the experiment began, the animal was restrained, leaving only its head free. The eyelashes were cut and the sensitivity threshold was determined for each eye. […] After that, the sensitivity threshold of the eye cornea to tactile impact was determined. […] Each time, tactile stimulation of the same strength and rhythm was applied to the cornea and the minimum number of touches causing the eyelids to close (but no more than 100 touches and no longer than for 1 min) was recorded.

[5] = Spectrophotometric determination of Z→E half-transformation time (t1/2) in solutions; assay type: physicochemical; conditions: after 365 nm irradiation, thermal back Z→E, room temperature
Description: This parameter depends on a number of conditions, including the solvent; therefore, at the next stage, the effect of the solubilizer on the t1/2 value was examined. The study was carried out by a standard method using UV/Vis spectrophotometry. At the beginning of the experiment, the spectrum of the initial photostationary state (PSS) with predominance of the E-form was recorded, after which the solution was irradiated with UV light (λ = 365 nm) and the spectrum of the resulting PSS, with predominance of the Z-form, was recorded.
Next, the rate of reverse isomerization was monitored by measuring the absorption intensity at 5 min intervals. […]
UV/Vis spectroscopy was used for the time determination of Z-isomers’ half-lifes. […] Then, lnAt/A0 values were calculated using Equation (1):(1) lnAt/A0=lnAbsPSS(dark)−Abstime/AbsPSS(dark)−AbsPSS(365nm), where AbsPSS(dark) , AbsPSS(365nm), and Abstime are absorbance values at λmax(E) in the dark at the beginning of the experiment, after UV light (λ = 365 nm) irradiation and at different time points from 0 to 60 min, respectively. Then, a graph was plotted depending on the lnAt/A0 values from the time, a trend line was calculated and a first-order rate constant (k) for the thermal back Z–E isomerization reaction was obtained as the slope of the trend line. […]

[6] = aqueous micellar solution of Kolliphor ELP, aqueous with cosolvent or surfactant or cyclodextrin, 4% micellar solution of Kolliphor ELP, read-out: Maximum Solubility of Ethercaine
[7] = aqueous micellar solution of Pluronic F127, aqueous with cosolvent or surfactant or cyclodextrin, 4% micellar solution of Pluronic F127, read-out: Maximum Solubility of Ethercaine
[8] = water without excipients, water, no excipients, read-out: Maximum Solubility of Ethercaine

| SMILES | Regnier Index (Min—13, Max—1300) (rabbit eye cornea [1]; Dark) | Regnier Index (Min—13, Max—1300) (rabbit eye cornea [1]; UV λ = 365 nm) | solubility [2, 6] | solubility ([2]; aqueous micellar solution of Kolliphor ELP, aqueous with cosolvent or surfactant or cyclodextrin, 10% micellar solution of Kolliphor ELP, read-out: Maximum Solubility of Ethercaine) | solubility [2, 7] | solubility ([2]; before development of the dosage form) | solubility of the anesthetic in water ([2]; before the hydrochloride micellar dosage forms) | solubility ([2]; developed dosage form) | solubility of the anesthetic in water ([2]; dosage forms based on micellar solutions of Kolliphor ELP and Pluronic F127) | solubility [2, 8] | maximum concentration such that the solution remained stable [3] | solubility ([2]; aqueous micellar solution of Kolliphor ELP, 4% micellar solution of Kolliphor ELP, read-out: Maximum Solubility of Ethercaine) | solubility ([2]; aqueous micellar solution of Pluronic F127, 4% micellar solution of Pluronic F127, read-out: Maximum Solubility of Ethercaine) | decrease in the local anesthetic effect on UV irradiation (factor) (rabbit eye cornea [4]) | Half-Transformation Time (t1/2) ([5]; 4% micellar solution of Kolliphor ELP) | Half-Transformation Time (t1/2) ([5]; 4% micellar solution of Pluronic F127) |
| --- | --- | --- | --- | --- | --- | --- | --- | --- | --- | --- | --- | --- | --- | --- | --- | --- |
| CCN(CC)CC(=O)Nc1c(C)cccc1C [2% lidocaine hydrochloride, lidocaine hydrochloride] | 451 ± 40 (n = 8) ^a | 469 ± 37 (n = 8) ^a | – | – | – | – | – | – | – | – | – | – | – | – | – | – |
| c1ccc(N=Nc2ccc(OCCN3CCOCC3)cc2)cc1 [ETH, 4-(2-(N-Morpholino)-ethoxy)-azobenzene] | – | – | 6000 µg/mL (≈ 19.3 mM) | 10000 µg/mL (≈ 32.1 mM) | 7000 µg/mL (≈ 22.5 mM) | 0.6% | 0.6 wt.% | ≥ 2% | ≥ 2 wt.% | < 1000 µg/mL | 0.6 wt.% | – | – | – | – | – |
| c1ccc(/N=N/c2ccc(OCCN3CCOCC3)cc2)cc1 [ETH·HCl, 4-(2-(N-Morpholino)-Ethoxy)-Azobenzene Hydrochloride] | – | – | > 20000 µg/mL | – | > 20000 µg/mL | – | – | – | – | 6000 µg/mL | – | ≥ 20000 µg/mL | ≥ 20000 µg/mL | 16–20 | 0.85 h | 1.15 h |
